The record followed here is PMC12977544, “Phenotypic high-throughput screening identifies modulators of gut microbial choline metabolism” (mBio, 2026).

The test system of experiment [1] is choline-metabolizing gut bacteria (E. coli, P. mirabilis, C. sporogenes, A. hydrogenalis). Description: TMA inhibition across the panel of four choline-metabolizing gut bacteria. It is filed as cell-based. The conditions noted are these: for EC50: read-out: EC50 values for TMA inhibition across the choline-metabolizing bacteria. The source says: We then used secondary assays to prioritize scaffolds that had broad-spectrum TMA inhibitory activity against additional choline-metabolizing gut bacteria. For this, we used Clostridium sporogenes ATCC 15579, a human gut isolate that is able to efficiently ferment choline in addition to other carbon sources, as well as Anaerococcus hydrogenalis DSM 7454 and Proteus mirabilis ATCC 29906, human gut isolates previously identified to metabolize choline in vitro ([61]). In particular, E. coli MS 200-1 and C. sporogenes ATCC 15579 have been used in gnotobiotic studies to investigate the effects of bacterial choline metabolism on the host and microbiome ([46], [61], [62]). These strains are representative of taxa frequently detected in humans ([63]) and, together with E. coli, are representative of the major phyla and genera in which TMA producers have been detected across human gut isolates ([48]). Importantly, this group of strains included both gram-positive and gram-negative bacteria. Gram-negative bacteria have an additional outer membrane layer and associated efflux pumps ([29]), which typically decreases small molecule permeability compared to gram-positive bacteria. It also included bacteria with cut gene cluster architectures that differ in the number and types of microcompartment proteins encoded and in the size of the CutC enzyme ([48]). We hypothesized that testing the inhibitors against multiple choline-utilizing gut bacteria would increase the likelihood of identifying compounds with broad-spectrum activity.
Compounds were stored as 10 mM DMSO stocks at –20°C and diluted in DMSO to prepare varying concentrations of inhibitors for testing. Bacteria were grown anaerobically overnight in media supplemented with choline as described above. Cells were pelleted and resuspended in PBS, and d9-choline chloride was added to a final concentration of 1 mM. The final OD600 of the PBS cell resuspensions is as follows: 0.4 (E. coli), 0.15–0.2 (P. mirabilis), 0.2 (C. sporogenes), and 0.4 (A. hydrogenalis). The resuspended cells were added to 96-well plates containing inhibitors (final concentration of 1% DMSO, with final inhibitor concentrations ranging between 0 and 325 µM). The plates were sealed and incubated for 75 min (or 90 min for P. mirabilis) at 37°C. Following incubation, the plates were removed from the anaerobic chamber and analyzed immediately or kept at –20°C until LC–MS/MS analysis. Each inhibitor concentration was tested in triplicate. EC50 values were calculated with GraphPad Prism by fitting the log(inhibitor) vs response—Variable slope (four-parameter) model for non-linear regression.

The subject of experiment [2] is Proteus mirabilis ATCC 29906. The experiment in a line: TMA inhibition in bacterial whole cells (LC–MS/MS of d9-TMA from d9-choline). It is filed as cell-based. To be noted: Proteus mirabilis, ATCC29906, 1.5 h; 1 mM d9-choline in PBS, 90 min, 37°C, anaerobic; read-out: EC50 in whole cells, P. mirabilis (TMA inhibition).
The test system of experiment [3] is Clostridium sporogenes ATCC 15579. Described as above. It is filed as cell-based. The conditions noted are these: Clostridium sporogenes, ATCC15579, 1.25 h; 1 mM d9-choline in PBS, 75 min, 37°C, anaerobic.
Experiment [4] relates to Anaerococcus hydrogenalis DSM 7454. The experiment is described as above. It is filed as cell-based. To be noted: 1 mM d9-choline in PBS, 75 min, 37°C, anaerobic; for EC50: Anaerococcus hydrogenalis, DSM7454, 1.25 h.
The next experiment has as its system E. coli MS 200-1. The experiment in a line: MIC in MEGA medium. It is filed as cell-based, Escherichia coli MS 200-1. The conditions noted are these: Escherichia coli, MS2001; anaerobic, 37°C, 24 h, up to 200 µM. As to the method: For TMA inhibition assays, E. coli and P. mirabilis were grown in NCE medium supplemented with 20 mM choline chloride, A. hydrogenalis was grown in MEGA medium supplemented with 3 mM choline chloride, and C. sporogenes was grown in BHI medium supplemented with 20 mM of choline chloride to induce expression of the cut gene cluster. For MIC assays, all bacteria strains were grown in MEGA medium.

Bounds are passed on as bounds.

For `Cc1ccc(-c2cc(C(=O)NCCCN3CCc4ccccc4C3)c(C)[nH]2)cc1C` [Compound 5], the results for the EC50 in experiment [1], in experiment [2] and in experiment [3] were 12 to 33 µM, 33 µM and 28 µM, respectively. In addition, in experiment [4], the “EC50 in whole cells, A. hydrogenalis (TMA inhibition)” value is reported as “No inhibition”.
With `Cc1ccc(-c2cc(C(=O)NCCCN3CCC(C)CC3)c(C)[nH]2)cc1C` [Compound 6], the EC50 in experiment [2] was 48 µM; in experiment [3], 132 µM; in experiment [4], 31 µM. In the experiment with E. coli MS 200-1, the MIC was over 200 µM.
`Cc1ccc(-c2cc(C(=O)NCCCCCN3CCCCCC3)c(C)[nH]2)cc1C` [Compound 45]: in experiment [1] (compared with compound 6), the “Fold more potent than 6 across the panel of bacteria” value is recorded as 2–10 fold. Further, in experiment [1] (in vitro), the “Reduction of conversion of choline to TMA by bacteria in vitro” value is listed as over 80%. Further, the EC50 was 2 to 18 µM in experiment [1], 7 µM in experiment [2], 14 µM in experiment [3] and 18 µM in experiment [4]. In addition, in the experiment with E. coli MS 200-1, the MIC was over 200 µM.
